Legend:
Sir2 or SIRT1 = details: cited from earlier work
[1] = test system: C. elegans (N2 wild type); assay: C. elegans lifespan on oxaloacetate-containing nematode growth agar; assay type: in vivo, Caenorhabditis elegans
Procedure: A similar set of eight control plates with the same nematode growth agar was also prepared. […] In addition, five “starter plates” were made using nematode growth agar and no 5′flurodeoxyuridine. All plates were streaked with 0.5 ml bacteria Luria broth containing E. coli as a food source for the nematodes. The bacteria were allowed to grow on the plates for several days at 37° C. prior to adding C. elegans. Ten C. elegans nematodes were transferred to each of five “starter plates” and were left on the plates for 12 hours to lay eggs. The C. elegans were then removed and the eggs were allowed to grow into young adults for two days. Ten nematodes were then transferred to each control plate and oxaloacetate plate by “picking” worms with a microprobe from the starter plate and moving it onto the target test plates. The day after the starter plates have been started with the 10 C. elegans was designated “day 0”, and was the estimated time of birth. The C. elegans were kept out of direct sunlight and were raised at a temperature of 21° C. The plates with the C. elegans were counted every day to determine the number of dead nematodes. Nematodes were scored as dead when they no longer respond to a gentle prodding with a probe. Lifespan is defined as the time elapsed from when the nematodes are hatched (lifespan=0) to when they are scored as dead. Nematodes that crawl off the plates or are otherwise lost during the assay have been excluded from calculations. The dead nematodes were removed from the plates each day with microprobe. The total population is the sum of all found dead worms. The counting of the nematodes was continued until all nematodes were dead. The data was then charted and is represented in FIG. 2. […] The highest increase in lifespan was at 16 mM (approximate 25%) for the concentrations tested, and the lowest increase was a 2 mM (approximately 10%). […] Splitomycin is a selective inhibitor for the Sir2 gene (Sir2a in yeast, Sirt1 in humnans).

[2] = test system: Drosophila melanogaster (Vestigal type); assay: D. melanogaster lifespan with oxaloacetate in fly food; assay type: in vivo; details: Example 4, 16 mM in water wetting the fly food, vs control
From the text: The fruit fly Drosophila melanogaster (Vestigal type, from Carolina Biological Supply) was used as a test organism to assess the addition of oxaloacetate therapy (from Sigma Aldrich Company) applied to the cells to extend lifespan and to act as a caloric restriction “mimic”. The fruit fly is more complex than C. elegans, but the metabolic pathways that involve calorie restriction are a basic building block of life, and are conserved throughout the animal kingdom. […] A small amount of yeast was added on top of the fly food. […] The flies were kept in a room receiving reflected natural sunlight at a temperature of 21° C. Each of the flies used emerged from the pupae state within 8 hours of each other. The day the flies were moved to the test vials was designated “day 0”, reflecting the emergence of the fly into adulthood. The flies were kept out of direct sunlight and were raised at a temperature of 21° C. The food vials were prepared every 3 to 4 days and the flies transferred to prevent infestation of mites and other pathogenic microbial organisms. The vials with the flies were counted every day to determine the number of dead vs. living. Flies were scored as dead when they no longer respond to a gentle prodding with a probe. Lifespan is defined as the time elapsed from when the flies enter into adulthood (lifespan=0) to when they are scored as dead. […]

Drosophila melanogaster = assay: D. melanogaster lifespan under stress (food vials not changed, microbial pathogens); assay type: in vivo; details: Example 5, flies under stress
From the text: It is well known in the literature that calorie restricted animals survive stress better than the control animals fed an ad libitum diet. The data from the experiment were charted and are represented in FIG. 5.

[3] = Weight gain of older (9 month) C57Bl/6 mice fed oxaloacetate; assay type: in vivo, C57Bl/6 type male mice; details: 0.4% oxaloacetate in the food, eating freely, 9 month old mice
From the text: C57Bl/6 type male mice approximately 9 months of age were obtained from Harlan, San Diego, Calif. as retired breeders. These mice were all born on the same day. The C57Bl/6 type mouse is inbred to reduce the genetic variation between individuals. The mice were housed in individual cages and were provided with ad libitum amounts of fortified food pellets (Kadee). The amount of food consumed was weighed daily, while the mice were weighed weekly. After two weeks, a baseline of the average food consumed by the mice was established at 7.1 grams per mouse per day. In addition, after an overnight fast, blood glucose readings for each mouse were recorded for each mouse. […] Male C57Bl/6 type mice, when allowed to eat freely, gain weight with age in a linear fashion. The mice were weighed weekly for 21 weeks, and the individual weights were recorded and averaged to form a “group average” for each of the three groups.

[4] = test system: liver tissue gene expression; assay: Liver gene expression, Affymatrix Mouse Genome 430 2.0 Array, oxaloacetate and CR mice versus control mice; assay type: in vivo, C57Bl/6 mice; details: for common genes changed in same direction as calorie restriction: of the 363 common genes
From the text: Three mice of each of the three groups of the C57Bl/6 mice of Example 6 were sacrificed after 21 weeks. […] Because each group was a pooling of three mice, there are a variety of individual responses. Changes in the physical results of the group (such as weight loss, increase in health span, and increase in life span) are due to genes expressed in common by the group, not in individual variation. Thus it is important to look at the genes that changed in expression from the control group, but are commonly expressed between the calorie restricted group and the oxaloacetate supplemented group.

C57Bl/6 mice = assay: Lifespan and health of C57Bl/6 mice fed oxaloacetate; assay type: in vivo; details: 0.4% in food by weight, at the 21st month of life, still continuing
[5] = mouse, in vivo
[6] = 21 diabetic patients, 100 mg to 1,000 mg (2-10 mg/kg); cited from earlier work
[7] = in vivo; cited from earlier work
[8] = count of genes among those shown to change commonly

## CC=O [acetaldehyde]
Sir2 or SIRT1
  activity of beneficial genes: did not see any increase in the activity of beneficial genes

## O=C(O)CC(=O)C(=O)O [oxaloacetate]
[1]; Example 1, 16 mM in nematode growth agar, vs control plates
  increase in maximal life span: 40%
[1]; Example 1, 16 mM in nematode growth agar, vs control plates, 21° C.
  increase in average lifespan: 23.6%
[1]; Example 2, 2 mM in agar (lowest increase)
  increase in lifespan: approximately 10%
[1]; Example 2, 16 mM in agar (highest increase)
  increase in lifespan: ~25%
[2]
  increase in average lifespan: 20%
Drosophila melanogaster
  maximal increase in lifespan: 30%
[3]
  less weight gained than control group: 20%
[4]; 363 common genes, liver, Table 1
  percentage of common changed genes moving in same direction as calorie restriction: 98%
[4]; Affymatrix No. 3985, OX versus CR, both to control
  Gene Movement in Same Direction?, Cyp2b9: YES
[4]; Affymatrix No. 17655, OX versus CR, both to control
  Gene Movement in Same Direction?, similar to cytochrome P450 2B4-rat (LOC232993): YES
[4]; Table 2, 1.7 fold cut off
  Percentage of Genes Moving in Same Direction as Calorie Restricted Mice: 100.0%
[4]; [8]
  Mice Fed Oxaloacetate with Genes Moving in Opposite Direction as Calorie Restricted Mice: 7
  Mice Fed Oxaloacetate with Genes Moving in Same Direction as Calorie Restricted Mice: 356
[4]; genes shown to change commonly
  Percentage of Mice Fed Oxaloacetate with Genes Moving in Same Direction as Calorie Restricted Mice: 98.1%
[4]; liver
  common genes changed in same direction as calorie restriction: 357 genes
[4]; liver, listed as Oxaloacetate
  common genes changed in same direction as calorie restriction: 356 genes
[4]; pooled liver of three mice, 21 weeks
  genes with measurable change in expression versus control: 765 genes
[4]; pooled liver, 21 weeks
  genes changed in common with calorie restricted mice versus control: 363 genes
C57Bl/6 mice
  increase in lifespan over control group: ≥ 10%
[5]
  toxicity: negative toxicity
[6]
  side effects: no negative side effects
[7]
  LD50: above 5 g/kg of body weight

## O=C1CCc2c(ccc3ccccc23)O1 [splitomycin, reference compound]
[1]; Example 3, FIG. 3, inhibited Sir2 function, no oxaloacetate
  lifespan compared with control group: lived for shorter periods than the control group
